Molecules are shown by their SMILES.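 Assay format: 96-well plates, 48-hour exposure. GI50: concentration for 50% inhibition of growth.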 Calls of active or inactive are those of the source. Cut-off read from the data, not from the text of the source: active = GI50 up to about 1.1 µM and inactive = higher.

Test systems include HT-29; EKVX; HCT-15; OVCAR-4; NCI-H23; IGROV-1; A549; TK-10; SK-OV-3; HOP-62; ACHN; KM12; SK-MEL-5; SNB-75; HCC 2998; HOP-92.
Common to all, as to assay: inhibition of tumour cell growth, NCI panel, 48 h

Regarding `O=C1C=CC=CC2CC=C[C@@H](O)C12` (stereo partly drawn), the GI50 in the experiment with HT-29 was 16.8 µM (inactive); with EKVX, 24.5 µM (inactive); in the experiment with HCT-15, 17.3 µM; in the experiment with OVCAR-4 it was 31 µM (inactive); in the experiment with NCI-H23 it was > 10 µM (inactive); in the experiment with IGROV-1, 39.6 µM (inactive). In addition, the GI50 with A549 was 26.2 µM (inactive); in the experiment on TK-10 it was 32.4 µM (inactive); in the experiment with SK-OV-3, 69.7 µM (inactive); with HOP-62, 45.7 µM (inactive); in the experiment on ACHN, 17.3 µM (inactive); in the experiment with KM12, 10.4 µM (inactive). In addition, in the experiment with SK-MEL-5, the GI50 is 18 µM (inactive).
`COc1cccc2c1[C@H]1OC(=O)NC1CCCCC2` (stereo partly drawn): the GI50 is > 100 µM (inactive) with HT-29; > 100 µM (inactive) in the experiment with SNB-75; > 100 µM (inactive) in the experiment with EKVX; greater than 100 µM in the experiment on HCT-15; > 100 µM (inactive) in the experiment on OVCAR-4; > 100 µM (inactive) in the experiment on NCI-H23. For the same molecule, the GI50 in the experiment with IGROV-1, in the experiment on A549, in the experiment with TK-10, in the experiment on SK-OV-3, with HOP-62 and with HCC 2998 was > 100 µM (inactive) in each case. For the same molecule, the GI50 in the experiment on ACHN, with KM12 and in the experiment on SK-MEL-5 was > 100 µM (inactive) throughout.
As to `O=C1CCN2C(=O)CCN12`, the GI50 in the experiment with HT-29, in the experiment with EKVX, with OVCAR-4, in the experiment with NCI-H23, with A549 and with TK-10 was > 100 µM (inactive) each time. Besides, the GI50 in the experiment with SK-OV-3, with HOP-62, in the experiment with HOP-92, in the experiment with ACHN and in the experiment with KM12 was > 100 µM (inactive) in each case.
As to `C/C(CCN(C)C)=N/O`, the GI50 is 0.658 µM (active) with HT-29; 16.8 µM (inactive) in the experiment with SNB-75; 1.55 µM (inactive) with EKVX; 11.7 µM with HCT-15; < 0.01 µM (active) with OVCAR-4; 8.32 µM (inactive) in the experiment on NCI-H23. Besides, the GI50 in the experiment with IGROV-1 is 18.9 µM (inactive); in the experiment with A549 it was 1.6 µM (inactive); in the experiment on TK-10 it was 7.73 µM (inactive); in the experiment on SK-OV-3, 17.9 µM (inactive); in the experiment on HOP-62, 1.77 µM (inactive); in the experiment on HOP-92, 9.44 µM (inactive). Further, the GI50 was 1.16 µM (inactive) in the experiment with HCC 2998, 0.918 µM (active) with ACHN and 12.5 µM (inactive) in the experiment on KM12.
`CN(C(=O)C12C3C4C1C1C2C3C41C(O)C(C)(C)C)C(C)(C)C` (stereo not drawn): the GI50 in the experiment with HT-29, with SNB-75, in the experiment on EKVX, with OVCAR-4, in the experiment with NCI-H23 and with IGROV-1 was > 100 µM (inactive) each time. Also, the GI50 in the experiment on A549, with TK-10, with SK-OV-3, in the experiment on HOP-62, in the experiment with HCC 2998 and in the experiment on ACHN was > 100 µM (inactive) in each case. The GI50 in the experiment on KM12 and in the experiment on SK-MEL-5 was > 100 µM (inactive) throughout.
As to `CC(=O)NNc1nc(C)c(C(=O)/C=C/c2ccc(Cl)cc2)s1`, the GI50 is > 100 µM (inactive) in the experiment on HT-29; > 100 µM (inactive) in the experiment on SNB-75; 57.7 µM (inactive) in the experiment with EKVX; > 100 µM (inactive) with NCI-H23; > 100 µM (inactive) in the experiment on IGROV-1; > 100 µM (inactive) with A549. Also, the GI50 with TK-10, with SK-OV-3, in the experiment with HOP-62, with HOP-92, in the experiment with HCC 2998 and with ACHN was > 100 µM (inactive) each time. Besides, the GI50 with KM12 and in the experiment with SK-MEL-5 was > 100 µM (inactive) in each case.
Take `O=C(/C=C/c1ccc(OCCCOc2ccc(/C=C/C(=O)c3ccccc3)cc2)cc1)c1ccccc1`: the GI50 in the experiment on HT-29 is > 100 µM (inactive); in the experiment with SNB-75, 33.4 µM (inactive); in the experiment with EKVX it was > 100 µM (inactive); in the experiment with HCT-15, greater than 100 µM; in the experiment with OVCAR-4, > 100 µM (inactive); with NCI-H23 it was > 100 µM (inactive). The GI50 with IGROV-1, in the experiment with A549, in the experiment with TK-10, in the experiment with HOP-62, with HCC 2998 and in the experiment on ACHN was > 100 µM (inactive) each time. In the experiment on SK-MEL-5, the GI50 is > 100 µM (inactive).
`CN(C)CCNC(=O)c1cccc2c(Nc3ccc(S(=O)(=O)N=C(N)N)cc3)c3ccccc3nc12`: the GI50 was 16.3 µM (inactive) in the experiment on HT-29; 15.1 µM (inactive) with SNB-75; 20.6 µM (inactive) in the experiment with EKVX; 99.1 µM in the experiment on HCT-15; 13.5 µM (inactive) with OVCAR-4; 29 µM (inactive) in the experiment on NCI-H23. Also, the GI50 was 7.1 µM (inactive) in the experiment on IGROV-1; 10.6 µM (inactive) with A549; 75.9 µM (inactive) with TK-10; 11.3 µM (inactive) in the experiment on HOP-62; 22.1 µM (inactive) in the experiment on ACHN; 31.3 µM (inactive) in the experiment with KM12. Besides, the GI50 in the experiment with SK-MEL-5 is 13.9 µM (inactive).
As for `CN(C)CC1CCCC(CN(C)C)C1=NOC(=O)c1ccccc1` (stereo not drawn), the GI50 was > 100 µM (inactive) with HT-29; > 56.5 µM (inactive) in the experiment with SNB-75; > 100 µM (inactive) in the experiment with EKVX; greater than 100 µM in the experiment with HCT-15; > 100 µM (inactive) in the experiment on NCI-H23; > 100 µM (inactive) in the experiment on IGROV-1. The GI50 in the experiment on A549, in the experiment on TK-10, in the experiment with SK-OV-3, in the experiment with HOP-62, in the experiment on HOP-92 and in the experiment on HCC 2998 was > 100 µM (inactive) throughout. The GI50 in the experiment with ACHN, in the experiment with KM12 and in the experiment with SK-MEL-5 was > 100 µM (inactive) each time.
Take `CC(C(=O)c1ccccc1)C1(O)C(=O)Nc2ccc(Cl)cc21` (stereo not drawn): the GI50 in the experiment with HT-29 is 75.7 µM (inactive); with SNB-75 it was > 100 µM (inactive); in the experiment on EKVX, > 100 µM (inactive); with HCT-15, 81.8 µM; in the experiment with OVCAR-4, 19.2 µM (inactive); in the experiment with NCI-H23, > 100 µM (inactive). Moreover, the GI50 with IGROV-1, in the experiment on A549, with TK-10, in the experiment on SK-OV-3, in the experiment on HOP-62 and in the experiment on HOP-92 was > 100 µM (inactive) throughout. In addition, the GI50 in the experiment with HCC 2998, with ACHN and in the experiment on KM12 was > 100 µM (inactive) in each case.
As to `COc1ccc2c(CCNC(C)=O)c(C(C)=O)[nH]c2c1`, the GI50 in the experiment with HT-29 is > 100 µM (inactive); in the experiment with SNB-75 it was > 100 µM (inactive); with EKVX, > 100 µM (inactive); in the experiment with HCT-15 it was greater than 100 µM; with OVCAR-4 it was > 100 µM (inactive); in the experiment with NCI-H23, > 10 µM (inactive). For the same molecule, the GI50 with IGROV-1, with A549, in the experiment on TK-10, in the experiment with HOP-62, with HCC 2998 and in the experiment on ACHN was > 100 µM (inactive) throughout. For the same molecule, the GI50 with KM12 is > 100 µM (inactive).
Take `CC1=C(C)C(=O)c2c(cc3ccc4ccccc4n23)C1=O`: the GI50 is > 100 µM (inactive) in the experiment with HT-29; > 100 µM (inactive) in the experiment on SNB-75; > 100 µM (inactive) in the experiment with EKVX; greater than 100 µM in the experiment with HCT-15; > 100 µM (inactive) in the experiment on OVCAR-4; > 100 µM (inactive) with NCI-H23. The GI50 in the experiment on IGROV-1, in the experiment on A549, in the experiment with TK-10, in the experiment on SK-OV-3, in the experiment on HCC 2998 and with ACHN was > 100 µM (inactive) in each case. Besides, the GI50 with KM12 and in the experiment with SK-MEL-5 was > 100 µM (inactive) throughout.
Take `CC1CCP(=O)(c2ccccc2)CC1` (stereo not drawn): the GI50 with HT-29 was > 100 µM (inactive); in the experiment on SNB-75, > 100 µM (inactive); in the experiment with EKVX, > 100 µM (inactive); with HCT-15, greater than 100 µM; in the experiment with OVCAR-4, > 100 µM (inactive); in the experiment on NCI-H23, > 100 µM (inactive). Also, the GI50 in the experiment on IGROV-1, in the experiment with A549, with TK-10, in the experiment on SK-OV-3, in the experiment on HOP-62 and in the experiment with HCC 2998 was > 100 µM (inactive) in each case. Moreover, the GI50 with ACHN, with KM12 and with SK-MEL-5 was > 100 µM (inactive) each time.
For the molecule `O=C1Nc2ccccc2/C1=N/NC(=O)c1ccccc1O`, the GI50 in the experiment with HT-29 is 82.2 µM (inactive); with SNB-75, 19.8 µM (inactive); in the experiment on EKVX it was 68.5 µM (inactive); in the experiment with HCT-15, 32.6 µM; with OVCAR-4 it was 75.5 µM (inactive); with NCI-H23 it was 24.5 µM (inactive). In addition, the GI50 in the experiment on A549 is 55.3 µM (inactive); in the experiment on TK-10, 65.9 µM (inactive); in the experiment with SK-OV-3, 12.1 µM (inactive); in the experiment with HOP-62, 57.3 µM (inactive); in the experiment on HCC 2998, 23 µM (inactive); in the experiment on ACHN it was 21.8 µM (inactive). Moreover, in the experiment with KM12, the GI50 was 33.7 µM (inactive).
As to `O=C(O)c1ccccc1NS(=O)(=O)c1ccc([N+](=O)[O-])cc1`, the GI50 is > 100 µM (inactive) with HT-29; > 100 µM (inactive) with SNB-75; > 100 µM (inactive) with EKVX; greater than 100 µM in the experiment with HCT-15; > 100 µM (inactive) with OVCAR-4; > 100 µM (inactive) in the experiment on NCI-H23. For the same molecule, the GI50 in the experiment with IGROV-1, in the experiment on A549, in the experiment on TK-10, in the experiment with SK-OV-3, with HOP-62 and in the experiment on HCC 2998 was > 100 µM (inactive) each time. The GI50 with ACHN, with KM12 and in the experiment with SK-MEL-5 was > 100 µM (inactive) each time.
